Results published in ChEMBL document CHEMBL1151433, “National and regional assessment of antimicrobial resistance among community-acquired respiratory tract pathogens identified in a 2005-2006 U.S. Faropenem surveillance study” (2007).
Converted amounts (≈) assume the structure as drawn.

Experiments:
[1] = system: Haemophilus influenzae; assay: Antibacterial activity against beta lactamase-positive Haemophilus influenzae […] isolated from respiratory tract infected patients assessed as susceptible isolates after 20 to 24 hrs by broth microdilution method; type: functional, ATCC 49247
[2] = system: Streptococcus pneumoniae; assay: Antibacterial activity against Streptococcus pneumoniae ATCC 49619 isolated from respiratory tract infected patients with 3 to 5 years of age assessed as resistant isolates after 20 to 24 hrs by broth microdilution method; type: functional
[3] = system: Streptococcus pneumoniae; assay: Antibacterial activity against Streptococcus pneumoniae ATCC 49619 isolated from respiratory tract infected female patients assessed as resistant isolates after 20 to 24 hrs by broth microdilution method; type: functional
[4] = system: Streptococcus pneumoniae; assay: Antibacterial activity against penicillin-intermediate Streptococcus pneumoniae ATCC 49619 isolated from respiratory tract infected patients assessed as resistant isolates after 20 to 24 hrs by broth microdilution method; type: functional
[5] = system: Streptococcus pneumoniae; assay: Antibacterial activity against penicillin-susceptible Streptococcus pneumoniae ATCC 49619 isolated from respiratory tract infected patients assessed as susceptible isolates after 20 to 24 hrs by broth microdilution method; type: functional
[6] = system: Streptococcus pneumoniae; assay: Antibacterial activity against Streptococcus pneumoniae ATCC 49619 isolated from respiratory tract infected patients more than 65 years of age after 20 to 24 hrs by broth microdilution method; type: functional
[7] = system: Streptococcus pneumoniae; assay: Antibacterial activity against Streptococcus pneumoniae ATCC 49619 isolated from respiratory tract infected patients within 2 years of age after 20 to 24 hrs by broth microdilution method; type: functional
[8] = system: Streptococcus pneumoniae; assay: Antibacterial activity against penicillin-susceptible Streptococcus pneumoniae ATCC 49619 isolated from respiratory tract infected patients assessed as resistant isolates after 20 to 24 hrs by broth microdilution method; type: functional
[9] = system: Moraxella catarrhalis; assay: Antibacterial activity against Moraxella catarrhalis isolated from respiratory tract infected patients after 20 to 24 hrs by broth microdilution method; type: functional
[10] = system: Streptococcus pneumoniae; assay: Antibacterial activity against Streptococcus pneumoniae ATCC 49619 isolated from respiratory tract infected patients with 6 to 14 years of age after 20 to 24 hrs by broth microdilution method; type: functional
[11] = system: Haemophilus influenzae; assay: Antibacterial activity against Haemophilus influenzae […] isolated from respiratory tract infected patients after 20 to 24 hrs by broth microdilution method; type: functional; details: ATCC 49247
[12] = system: Streptococcus pneumoniae; assay: Antibacterial activity against Streptococcus pneumoniae ATCC 49619 isolated from respiratory tract infected patients with 6 to 14 years of age assessed as resistant isolates after 20 to 24 hrs by broth microdilution method; type: functional
[13] = system: Streptococcus pneumoniae; assay: Antibacterial activity against Streptococcus pneumoniae ATCC 49619 isolated from respiratory tract infected patients with 15 to 64 years of age after 20 to 24 hrs by broth microdilution method; type: functional
[14] = system: Haemophilus influenzae; assay: Antibacterial activity against beta lactamase-negative Haemophilus influenzae […] isolated from respiratory tract infected patients assessed as susceptible isolates after 20 to 24 hrs by broth microdilution method; type: functional
[15] = system: Streptococcus pneumoniae; assay: Antibacterial activity against Streptococcus pneumoniae ATCC 49619 isolated from respiratory tract infected male patients assessed as resistant isolates after 20 to 24 hrs by broth microdilution method; type: functional
[16] = system: Streptococcus pneumoniae; assay: Antibacterial activity against Streptococcus pneumoniae ATCC 49619 isolated from respiratory tract infected patients with 15 to 64 years of age assessed as resistant isolates after 20 to 24 hrs by broth microdilution method; type: functional
[17] = system: Streptococcus pneumoniae; assay: Antibacterial activity against penicillin-susceptible Streptococcus pneumoniae ATCC 49619 isolated from respiratory tract infected patients after 20 to 24 hrs by broth microdilution method; type: functional
[18] = system: Streptococcus pneumoniae; assay: Antibacterial activity against Streptococcus pneumoniae ATCC 49619 isolated from respiratory tract infected patients more than 65 years of age assessed as resistant isolates after 20 to 24 hrs by broth microdilution method; type: functional
[19] = system: Streptococcus pneumoniae; assay: Antibacterial activity against Streptococcus pneumoniae ATCC 49619 isolated from respiratory tract infected outpatients assessed as resistant isolates after 20 to 24 hrs by broth microdilution method; type: functional
[20] = system: Streptococcus pneumoniae; assay: Antibacterial activity against penicillin-intermediate Streptococcus pneumoniae ATCC 49619 isolated from respiratory tract infected patients assessed as susceptible isolates after 20 to 24 hrs by broth microdilution method; type: functional
[21] = system: Streptococcus pneumoniae; assay: Antibacterial activity against Streptococcus pneumoniae ATCC 49619 isolated from respiratory tract infected patients assessed as resistant isolates after 20 to 24 hrs by broth microdilution method; type: functional
[22] = system: Streptococcus pneumoniae; assay: Antibacterial activity against Streptococcus pneumoniae ATCC 49619 isolated from respiratory tract infected inpatients after 20 to 24 hrs by broth microdilution method; type: functional
[23] = system: Streptococcus pneumoniae; assay: Antibacterial activity against Streptococcus pneumoniae ATCC 49619 isolated from respiratory tract infected male patients after 20 to 24 hrs by broth microdilution method; type: functional
[24] = system: Streptococcus pneumoniae; assay: Antibacterial activity against Streptococcus pneumoniae ATCC 49619 isolated from respiratory tract infected patients within 2 years of age assessed as resistant isolates after 20 to 24 hrs by broth microdilution method; type: functional
[25] = system: Streptococcus pneumoniae; assay: Antibacterial activity against Streptococcus pneumoniae ATCC 49619 isolated from respiratory tract infected inpatients assessed as resistant isolates after 20 to 24 hrs by broth microdilution method; type: functional
[26] = system: Haemophilus influenzae; assay: Antibacterial activity against Haemophilus influenzae […] isolated from respiratory tract infected patients assessed as susceptible isolates after 20 to 24 hrs by broth microdilution method; type: functional, ATCC 49247
[27] = system: Streptococcus pneumoniae; assay: Antibacterial activity against Streptococcus pneumoniae ATCC 49619 isolated from respiratory tract infected patients with 3 to 5 years of age after 20 to 24 hrs by broth microdilution method; type: functional
[28] = system: Haemophilus influenzae; assay: Antibacterial activity against beta lactamase-positive Haemophilus influenzae […] isolated from respiratory tract infected patients after 20 to 24 hrs by broth microdilution method; type: functional; details: ATCC 49247
[29] = system: Streptococcus pneumoniae; assay: Antibacterial activity against penicillin-intermediate Streptococcus pneumoniae ATCC 49619 isolated from respiratory tract infected patients after 20 to 24 hrs by broth microdilution method; type: functional
[30] = system: Streptococcus pneumoniae; assay: Antibacterial activity against Streptococcus pneumoniae ATCC 49619 isolated from respiratory tract infected outpatients after 20 to 24 hrs by broth microdilution method; type: functional
[31] = system: Streptococcus pneumoniae; assay: Antibacterial activity against Streptococcus pneumoniae ATCC 49619 isolated from respiratory tract infected patients assessed as susceptible isolates after 20 to 24 hrs by broth microdilution method; type: functional
[32] = system: Streptococcus pneumoniae; assay: Antibacterial activity against Streptococcus pneumoniae ATCC 49619 isolated from respiratory tract infected patients after 20 to 24 hrs by broth microdilution method; type: functional
[33] = system: Streptococcus pneumoniae; assay: Antibacterial activity against penicillin-resistant Streptococcus pneumoniae ATCC 49619 isolated from respiratory tract infected patients assessed as susceptible isolates after 20 to 24 hrs by broth microdilution method; type: functional
[34] = system: Streptococcus pneumoniae; assay: Antibacterial activity against penicillin-resistant Streptococcus pneumoniae ATCC 49619 isolated from respiratory tract infected patients assessed as resistant isolates after 20 to 24 hrs by broth microdilution method; type: functional
[35] = system: Streptococcus pneumoniae; assay: Antibacterial activity against penicillin-resistant Streptococcus pneumoniae ATCC 49619 isolated from respiratory tract infected patients after 20 to 24 hrs by broth microdilution method; type: functional
[36] = system: Streptococcus pneumoniae; assay: Antibacterial activity against Streptococcus pneumoniae ATCC 49619 isolated from respiratory tract infected female patients after 20 to 24 hrs by broth microdilution method; type: functional
[37] = system: Haemophilus influenzae; assay: Antibacterial activity against beta lactamase-negative Haemophilus influenzae […] isolated from respiratory tract infected patients after 20 to 24 hrs by broth microdilution method; type: functional; details: ATCC 49247

**Q.** For `C=CC1=C(C(=O)O)N2C(=O)[C@@H](NC(=O)/C(=N\O)c3csc(N)n3)[C@H]2SC1` [CEFDINIR], which Activity [1] is on record?
**A.** Its Activity is 94.4%.

**Q.** And the Activity [2]?
**A.** The Activity was 23.2%.

**Q.** And the Activity [3]?
**A.** Its Activity is 18.3%.

**Q.** And the Activity [4]?
**A.** Its Activity is 14.8%.

**Q.** And the Activity [5]?
**A.** Its Activity is 99.9%.

**Q.** What about the MIC90 [6] of the same compound?
**A.** Its MIC90 is 4 µg/mL (≈ 10.1 µM).

**Q.** What about the MIC90 [7] of the same compound?
**A.** Its MIC90 is greater than 8 µg/mL.

**Q.** And the Activity [8]?
**A.** The Activity was 0%.

**Q.** What about the MIC50 [9] of the same compound?
**A.** Its MIC50 is 0.25 µg/mL (≈ 0.632 µM).

**Q.** And the MIC90 [9]?
**A.** Its MIC90 is 0.5 µg/mL (≈ 1.26 µM).

**Q.** And the MIC90 [10]?
**A.** The MIC90 was 8 µg/mL (≈ 20.2 µM).

**Q.** What about the % susceptible [11] of the same compound?
**A.** The % susceptible was 1%.

**Q.** What about the MIC50 [11] of the same compound?
**A.** Its MIC50 is 0.25 µg/mL (≈ 0.632 µM).

**Q.** And the Activity [12]?
**A.** Its Activity is 19.8%.

**Q.** What about the MIC90 [13] of the same compound?
**A.** The MIC90 was 4 µg/mL (≈ 10.1 µM).

**Q.** And the Activity [14]?
**A.** Its Activity is 95%.

**Q.** What about the Activity [15] of the same compound?
**A.** Its Activity is 19.8%.

**Q.** What about the Activity [16] of the same compound?
**A.** The Activity was 15.4%.

**Q.** What about the MIC50 [17] of the same compound?
**A.** The MIC50 was no more than 0.06 µg/mL.

**Q.** And the MIC90 [17]?
**A.** Its MIC90 is 0.12 µg/mL (≈ 0.303 µM).

**Q.** What about the Activity [18] of the same compound?
**A.** The Activity was 15.8%.

**Q.** What about the Activity [19] of the same compound?
**A.** The Activity was 19.6%.

**Q.** What about the Activity [20] of the same compound?
**A.** Its Activity is 67.5%.

**Q.** What about the Activity [21] of the same compound?
**A.** Its Activity is 19.2%.

**Q.** And the MIC90 [22]?
**A.** Its MIC90 is 8 µg/mL (≈ 20.2 µM).

**Q.** And the MIC90 [23]?
**A.** Its MIC90 is 8 µg/mL (≈ 20.2 µM).

**Q.** What about the Activity [24] of the same compound?
**A.** Its Activity is 33.2%.

**Q.** And the Activity [25]?
**A.** Its Activity is 18.8%.

**Q.** What about the Activity [26] of the same compound?
**A.** Its Activity is 94.8%.

**Q.** What about the MIC90 [27] of the same compound?
**A.** The MIC90 was greater than 8 µg/mL.

**Q.** What about the % susceptible [28] of the same compound?
**A.** The % susceptible was 1%.

**Q.** What about the MIC50 [28] of the same compound?
**A.** The MIC50 was 0.25 µg/mL (≈ 0.632 µM).

**Q.** And the MIC50 [29]?
**A.** The MIC50 was 0.25 µg/mL (≈ 0.632 µM).

**Q.** What about the MIC90 [29] of the same compound?
**A.** The MIC90 was 2 µg/mL (≈ 5.06 µM).

**Q.** What about the MIC90 [30] of the same compound?
**A.** The MIC90 was 8 µg/mL (≈ 20.2 µM).

**Q.** What about the Activity [31] of the same compound?
**A.** Its Activity is 76.8%.

**Q.** And the MIC50 [32]?
**A.** Its MIC50 is 0.12 µg/mL (≈ 0.303 µM).

**Q.** And the MIC90 [32]?
**A.** Its MIC90 is 8 µg/mL (≈ 20.2 µM).

**Q.** What about the Activity [33] of the same compound?
**A.** The Activity was 0%.

**Q.** And the Activity [34]?
**A.** The Activity was 100%.

**Q.** What about the MIC50 [35] of the same compound?
**A.** The MIC50 was 8 µg/mL (≈ 20.2 µM).

**Q.** What about the MIC90 [36] of the same compound?
**A.** The MIC90 was 8 µg/mL (≈ 20.2 µM).

**Q.** And the % susceptible [37]?
**A.** Its % susceptible is 1%.

**Q.** What about the MIC50 [37] of the same compound?
**A.** The MIC50 was 0.25 µg/mL (≈ 0.632 µM).
